Experimental data: publication PMC5794198, “Inhibitors of Trypanosoma cruzi Sir2 related protein 1 as potential drugs against Chagas disease” (PLoS Neglected Tropical Diseases, 2018)

How the values were obtained:
TcSir2rp1 = TcSir2rp1 (Trypanosoma cruzi, UniProt Q4DVL9); test: TcSir2rp1 NAD+-dependent deacetylase fluorimetric assay (CycLex kit); assay type: biochemical
Experimental: The deacetylase activity was measured using the commercial SIRT1/Sir2 Deacetylase Fluorometric Assay Kit (CycLex,Japan) according to the manufacturer’s recommendations. Briefly, fluorescence emission after digestion of deacetylated substrates by a lysine specific endopeptidase was measured in a fluorometric plate reader (Synergy HT, BioTek) with excitation and emission wavelengths set at 340 and 440 nm, respectively, every 30 seconds for 1 hour. The slope of the linear part of the reaction was calculated and used as readout of enzyme activity. […]
(§1) A variety of the bisnaphthalimidopropyl (BNIPs) derivatives, as well as the newly synthetized derivatives were evaluated as potential TcSir2rp1 inhibitors. The enzymatic reactions were performed using a commercially available CycLex SIRT1/Sir2 deacetylase fluorimetric kit (CycLex Co. Ltd., Nagano, Japan) in the absence and presence of the various inhibitors, 200 μM NAD^+ and 10 μM of peptide substrate as previously described.
as §1, with “µM” for “μM”

human SIRT1 = biological target: T1, human SIRT1 (Homo sapiens, UniProt Q96EB6); test: hSIRT1 deacetylase inhibition (CycLex kit); assay type: biochemical; settings: 200 μM
T1 sequence (Q96EB6 1-747): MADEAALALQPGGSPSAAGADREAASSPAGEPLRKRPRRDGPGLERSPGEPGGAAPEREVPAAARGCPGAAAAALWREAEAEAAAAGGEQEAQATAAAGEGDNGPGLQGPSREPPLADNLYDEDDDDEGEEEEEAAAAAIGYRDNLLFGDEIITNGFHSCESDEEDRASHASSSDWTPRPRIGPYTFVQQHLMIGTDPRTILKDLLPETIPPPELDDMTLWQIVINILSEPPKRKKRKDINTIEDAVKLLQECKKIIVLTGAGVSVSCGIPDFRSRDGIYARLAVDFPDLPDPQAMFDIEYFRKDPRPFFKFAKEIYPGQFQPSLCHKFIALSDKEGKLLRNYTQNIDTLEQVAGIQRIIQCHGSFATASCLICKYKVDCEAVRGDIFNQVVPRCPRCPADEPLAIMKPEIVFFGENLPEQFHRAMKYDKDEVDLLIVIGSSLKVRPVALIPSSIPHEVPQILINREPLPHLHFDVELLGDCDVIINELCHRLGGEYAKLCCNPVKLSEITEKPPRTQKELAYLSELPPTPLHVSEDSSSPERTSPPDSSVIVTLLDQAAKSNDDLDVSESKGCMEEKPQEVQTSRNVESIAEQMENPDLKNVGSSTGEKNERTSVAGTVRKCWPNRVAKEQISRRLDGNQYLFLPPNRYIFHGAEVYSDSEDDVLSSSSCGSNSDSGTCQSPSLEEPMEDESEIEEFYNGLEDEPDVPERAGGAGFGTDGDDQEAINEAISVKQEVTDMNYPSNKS

TbSir2rp1 = biological target: T2, TbSir2rp1 (Trypanosoma brucei brucei, UniProt Q57V41); test: TbSir2rp1 deacetylase inhibition; assay type: biochemical
T2 construct: hexahistidine (C); made in house
T2 sequence (Q57V41 whole entry): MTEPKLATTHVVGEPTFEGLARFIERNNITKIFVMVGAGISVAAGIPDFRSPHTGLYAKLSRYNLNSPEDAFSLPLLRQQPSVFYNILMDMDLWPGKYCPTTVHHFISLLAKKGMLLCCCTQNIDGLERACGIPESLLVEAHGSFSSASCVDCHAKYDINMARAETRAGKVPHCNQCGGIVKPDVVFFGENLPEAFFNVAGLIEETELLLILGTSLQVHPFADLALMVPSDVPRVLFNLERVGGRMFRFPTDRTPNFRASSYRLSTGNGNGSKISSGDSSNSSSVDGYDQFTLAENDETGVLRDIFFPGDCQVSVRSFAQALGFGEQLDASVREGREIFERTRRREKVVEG
Experimental: (§2) T. brucei Sir2rp1 (accession number: AAX70528.1) tagged with a C-terminal hexahistidine was expressed and characterized essentiality as described previously L. infantum Sir2rp1 was expressed and purified as previously described.
(§3) The deacetylase activity was measured using the commercial SIRT1/Sir2 Deacetylase Fluorometric Assay Kit (CycLex,Japan) according to the manufacturer’s recommendations. Briefly, fluorescence emission after digestion of deacetylated substrates by a lysine specific endopeptidase was measured in a fluorometric plate reader (Synergy HT, BioTek) with excitation and emission wavelengths set at 340 and 440 nm, respectively, every 30 seconds for 1 hour. The slope of the linear part of the reaction was calculated and used as readout of enzyme activity.

LiSir2rp1 = biological target: T3, LiSir2rp1 (Leishmania infantum, UniProt A0A6L0XH39); test: LiSir2rp1 deacetylase inhibition; assay type: biochemical
T3 construct: made in house
T3 sequence (A0A6L0XH39 entry or part of it): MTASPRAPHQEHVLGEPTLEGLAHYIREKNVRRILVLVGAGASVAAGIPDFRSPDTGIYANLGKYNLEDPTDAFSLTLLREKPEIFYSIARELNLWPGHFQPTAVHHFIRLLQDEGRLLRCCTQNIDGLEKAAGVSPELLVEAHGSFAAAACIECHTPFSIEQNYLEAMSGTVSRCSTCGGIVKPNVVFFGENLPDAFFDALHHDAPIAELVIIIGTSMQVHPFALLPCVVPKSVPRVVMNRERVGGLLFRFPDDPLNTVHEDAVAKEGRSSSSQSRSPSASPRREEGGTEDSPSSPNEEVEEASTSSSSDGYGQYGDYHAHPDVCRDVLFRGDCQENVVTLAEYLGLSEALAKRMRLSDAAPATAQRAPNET
Experimental: as §2, §3

T. cruzi amastigotes = test: High-content screening assay on intracellular T. cruzi amastigotes; assay type: cell-based, Trypanosoma cruzi; settings: up to a concentration of 2000 μM (2 mM)
Experimental: For the evaluation of the activity against T. cruzi amastigotes, high-content screening (HCS) was designed. In summary, 100 μL of host C2C12 cells (ATCC) were seeded in clear bottom black 96-well plates at a density of 2.5 x 10^4 cells/mL (2.5 × 10^3 cells/well). After 24 hrs, 50 μL of Y strain tissue culture-derived trypomastigotes were used to infect the host cells at a density of 7.5 x 10^5/mL (3.75 x 10^4 parasites/well). The parasites were allowed to infect for a 24 hr period, after which compounds were added in a volume of 50 μL. […] After 72 hrs of compound incubation, the wells were fixed with 4% paraformaldehyde for 15 to 30 mins. The plates were then washed once with deionized water and stained with a solution of DAPI (3 μM) for 1 hour. Plates were imaged in an INCell 2000 (GE Healthcare) high-content analyser by taking 16 pictures per well at 20 X objective amplification. Images were analysed with INCell Developer software (GE Healthcare) using the segmentation of host cell nuclei and parasite kinetoplast DNA. The measurement output used was the average number of parasites per cell calculated by the ratio of host cell nuclei/parasite kinetoplast DNA.
In this assay, the compounds are incubated for 72 hours with cells previously infected with wild-type trypomastigotes for 24 hours. The readout was done by comparing the average number of amastigotes per cell that developed by the end of the incubation period. The quality of the assay was statistically evaluated by the calculation of the z-factor [75], that represents the reliability of the assay in distinguishing positive controls confidently from negative controls. Varying from 0 to 1, z-factor values higher than 0.5 are considered acceptable for drug screening. The z-factor obtained was 0.68, validating the use of the assay (S3B Fig).

[1] = system: Plasmodium falciparum Sir2A; set-up: method as in PMID 19937668, PMID 18221799; settings: previously described; ref [46], [72]; cited from earlier work

Sequence of TcSir2rp1 (Q4DVL9 entry or part of it): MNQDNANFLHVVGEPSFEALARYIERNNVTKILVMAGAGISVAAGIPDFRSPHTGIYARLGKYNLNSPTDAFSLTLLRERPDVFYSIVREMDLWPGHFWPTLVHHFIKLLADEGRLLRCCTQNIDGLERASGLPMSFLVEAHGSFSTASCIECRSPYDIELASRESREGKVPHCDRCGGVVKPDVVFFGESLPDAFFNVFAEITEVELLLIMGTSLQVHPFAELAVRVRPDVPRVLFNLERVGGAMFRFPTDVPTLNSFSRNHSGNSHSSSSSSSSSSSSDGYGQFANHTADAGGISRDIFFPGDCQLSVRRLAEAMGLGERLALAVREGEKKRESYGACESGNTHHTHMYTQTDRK

Compound: NC(=O)c1cccnc1 [Nicotinamide, nicotinamide, reference compound]
- IC50 (TcSir2rp1; 10 μM Ac-peptide and 200 μM NAD+, read-out: IC50 of TcSir2rp1 inhibition): 456 ± 44 µM
- inhibition at 200 µM (TcSir2rp1; 200 μM): 34 ± 1%
- inhibition at 200 µM (human SIRT1): 66 ± 10%
- inhibition at 200 µM (TbSir2rp1): 70 ± 5%
- inhibition at 200 µM (LiSir2rp1): 82%
- Activity in the amastigote assay (T. cruzi amastigotes): no amastigote anti-parasitic activity was detected
- IC50 [1]: 51.2 ± 3 µM
